# Biological target: 5'-nucleotidase (Homo sapiens, UniProt P21589)
# Assay: CD73 Biochemical IC50 Assay
# Procedure: Compound serial dilutions were pre-spotted into Thermo Nunc assay plate. 50 uL CD73 enzyme buffer (CD73 purchased from R&D system=0.6 nM, 25 mM Tris, pH 7.4, 5 mM MgCl2, 1 mM NaH2PO4) was added into the assay plate and incubate for 15 mins. […] The samples were analyzed using Rapid fire.
# Chain of 5'-nucleotidase (P21589 whole entry): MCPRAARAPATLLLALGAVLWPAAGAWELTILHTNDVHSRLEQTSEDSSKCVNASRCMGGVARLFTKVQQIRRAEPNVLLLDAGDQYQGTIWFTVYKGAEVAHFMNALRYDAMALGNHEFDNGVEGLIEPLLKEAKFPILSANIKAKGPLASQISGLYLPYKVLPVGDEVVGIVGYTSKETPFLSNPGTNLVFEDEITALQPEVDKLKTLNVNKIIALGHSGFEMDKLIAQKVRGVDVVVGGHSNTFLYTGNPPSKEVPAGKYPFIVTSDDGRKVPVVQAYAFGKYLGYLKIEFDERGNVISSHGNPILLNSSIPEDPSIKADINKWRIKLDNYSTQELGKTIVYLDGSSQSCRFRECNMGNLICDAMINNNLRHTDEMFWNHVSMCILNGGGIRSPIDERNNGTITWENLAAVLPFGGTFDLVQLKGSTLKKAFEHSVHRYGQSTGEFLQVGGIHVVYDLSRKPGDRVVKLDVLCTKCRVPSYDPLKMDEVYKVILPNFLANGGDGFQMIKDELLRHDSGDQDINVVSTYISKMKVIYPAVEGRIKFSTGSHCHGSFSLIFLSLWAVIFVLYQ
row,SMILES,IC50 [µM]
1,"O=c1[nH]cc(-c2cc(N3CC4CC(F)(C4)C3)c3nccn3n2)c(=O)[nH]1 [US20240043427, Example 579]",0.0191
2,"O=c1[nH]cc(-c2cc([C@H]3C[C@@H]3c3ccc4cnn(CC(F)(F)F)c4c3F)c3ncc(F)n3n2)c(=O)[nH]1 [US20240043427, Example 630]",0.00032
3,"CC(C)(C)COc1cc(-c2c[nH]c(=O)[nH]c2=O)nn2ccnc12 [US20240043427, Example 679]",0.0679

# — BindingDB's records for patent US20240043427 (Gilead Sciences, 2024)
